Assay results published in patent US20080090805A1, “CB-1 MODULATING COMPOUNDS AND THEIR USE” (ACADIA PHARMACEUTICALS INC., priority 2005, published 2008).

Key:
[1] = Clearance study, liver microsomes (rats); details: rat, pH 7.4
[2] = Clearance study, liver microsomes (mice); details: mouse, pH 7.4
[3] = Clearance study, liver microsomes (human); details: pH 7.4

SMILES | microsomal CLint at 1 μM [1] [µL/min/mg] | microsomal CLint at 1 μM [2] [µL/min/mg] | microsomal CLint at 1 μM [3] [µL/min/mg]
O=C(NCc1ccccc1)c1ccc2c(c1)N=C(c1ccc(Cl)cc1)c1ccccc1S2 [drawing 1801] | 63 | 166 | 23
O=C(NC1CCCCC1)c1ccc2c(c1)N=C(c1ccc(Cl)cc1)c1ccccc1S2 [drawing 1712] | 43 | 78 | 8
O=C(NCCc1cccnc1)c1ccc2c(c1)N=C(c1ccc(Cl)c(Cl)c1)c1ccccc1S2 [drawing 1668] | 65 | 82 | 41
O=C(NCc1ccccn1)c1ccc2c(c1)N=C(c1ccc(Cl)cc1)c1ccccc1S2 [drawing 1760] | 46 | 73 | 37
COc1ccc(C2=Nc3cc(C(=O)NCC(C)C)ccc3Sc3ccccc32)cc1 [drawing 1708] | 113 | 218 | 78
O=C(NN1CCCCCC1)c1ccc2c(c1)N=C(c1ccc(Cl)s1)c1ccccc1S2 [drawing 1687] | 186 | 360 | 122
O=C(NCc1ccccc1Cl)c1ccc2c(c1)N=C(c1cccc(Cl)c1)c1ccccc1S2 [drawing 1674] | 48 | 124 | 28
O=C(NCc1ccco1)c1ccc2c(c1)N=C(c1cccc(Cl)c1)c1ccccc1S2 [drawing 1684] | 93 | 133 | 35
CC(C)CCNC(=O)c1ccc2c(c1)N=C(c1cccc(Cl)c1)c1ccccc1S2 [drawing 1665] | 77 | 249 | 25
O=C(NCc1ccc(F)cc1)c1ccc2c(c1)N=C(c1ccc(Cl)cc1)c1ccccc1[S+]2[O-] (stereo not drawn) [drawing 1772] | 31 | 37 | 11
O=C(NCCc1cccnc1)c1ccc2c(c1)N=C(c1cccc(Cl)c1)c1ccccc1S2 [drawing 1770] | 154 | 82 | 130
O=C(NCc1ccc(F)cc1)c1ccc2c(c1)N=C(C1CCCCC1)c1ccccc1S2 [drawing 1775] | 493 | 275 | 58

Results, then the molecule that gave them:

microsomal CLint at 1 μM [1] [µL/min/mg] | microsomal CLint at 1 μM [2] [µL/min/mg] | microsomal CLint at 1 μM [3] [µL/min/mg] | SMILES
25 | 27 | 21 | O=C(NCc1ccco1)c1ccc2c(c1)N=C(c1ccc(Cl)c(Cl)c1)c1ccccc1S2 [drawing 1666]
225 | 386 | 89 | O=C(NCc1cccs1)c1ccc2c(c1)N=C(c1ccccc1F)c1ccccc1S2 [drawing 1744]
51 | 98 | 20 | CC(C)CNC(=O)c1ccc2c(c1)N=C(c1ccc(Cl)cc1F)c1ccccc1S2 [drawing 1677]
107 | 101 | 61 | O=C(NCc1cccnc1)c1ccc2c(c1)N=C(c1ccc(F)cc1)c1ccccc1S2 [drawing 1724]
162 | 124 | 59 | O=C(NN1CCCCCC1)c1ccc2c(c1)N=C(c1cccc(Cl)c1)c1ccccc1S2 [drawing 1689]
97 | 184 | 30 | O=C(NCc1cccs1)c1ccc2c(c1)N=C(c1ccc(Cl)s1)c1ccccc1S2 [drawing 1723]
395 | 755 | 155 | Cc1ccsc1C1=Nc2cc(C(=O)NCc3ccco3)ccc2Sc2ccccc21 [drawing 1762]
80 | 266 | 32 | CCCCNC(=O)c1ccc2c(c1)N=C(c1ccc(Cl)s1)c1ccccc1S2 [drawing 1669]
80 | 92 | 41 | O=C(NCc1cccnc1)c1ccc2c(c1)N=C(c1ccc(Cl)cc1)c1ccccc1S2 [drawing 1756]
166 | 238 | 56 | O=C(NCc1cccs1)c1ccc2c(c1)N=C(c1cccc(F)c1)c1ccccc1S2 [drawing 1658]
48 | 58 | 12 | O=C(NC1CCCCC1)c1ccc2c(c1)N=C(c1cccc(Cl)c1)c1ccccc1S2 [drawing 1675]
56 | 130 | 16 | O=C(NCc1ccc(F)cc1)c1ccc2c(c1)N=C(c1ccc(Cl)cc1)c1ccccc1S2 [drawing 1741]
